# Experimental data published in publication PMC8306578, “[^68Ga]Ga-DFO-c(RGDyK): Synthesis and Evaluation of Its Potential for Tumor Imaging in Mice” (International Journal of Molecular Sciences, 2021).
# Read-outs that look alike come from different tables or passages of the source.
# How the values were obtained:
# M21 cells = assay: Cell uptake assay in M21 (αvβ3-positive) cells; type: cell-based, human; details: 7 nM tracer, 500-fold excess (3.5 µM) inhibitor, 60 min, 37 °C
# Description: (§1) Human glioblastoma multiforme U-87 MG cells (ATCC, Manassas, VA, USA) were cultured in Dulbecco’s Modified Eagle Medium (Merck, Darmstadt, Germany) supplemented with 10% fetal bovine serum, 0.1 mM non-essential amino acids, and 1.0 mM sodium pyruvate at 37 °C in a 5% carbon dioxide humidified incubator. Human melanoma cell lines M21 (fluorescence-activated cell sorting selected clone, which stably express αvβ3 integrin; αvβ3 integrin-positive) and M21-L (αvβ3 integrin-negative) originated from prof. Cheresh, Departments of Immunology and Vascular Biology, The Scripps Research Institute, La Jolla, CA, USA and were a kind gift of prof. Decristoforo, Department of Nuclear Medicine, Medical University Innsbruck, Austria. Both M21 and M21-L cells were cultured in Dulbecco’s Modified Eagle Medium (Merck, Darmstadt, Germany) supplemented with 10% fetal bovine serum. All the cells were subcultured and used for experiments at a confluency of 70–90%. Cell uptake assays were performed in 24-well plates cell at cellular confluency of 70–90%. […] Afterwards, the 24-well plates were rinsed with PBS and the cells were lysed by 0.1 M NaOH and measured for radioactivity in the gamma counter. The uptake of [^68Ga]Ga-DFO-c(RGDyK) was calculated as the mean of the percentage of the applied dose ± standard deviation.
# M21-L tumor = assay: Static PET/CT imaging in M21-L (αvβ3-negative) xenografted Balb/c nude mice; type: in vivo, mouse; details: αvβ3 integrin-negative (M21-L) tumor tissue, 30 and 90 min p.i.
# Description: (§2) The animal studies were performed using female 8–10-week-old Balb/c and athymic Balb/c nude mice (Envigo, Horst, The Netherlands). The animals were acclimatized to laboratory conditions for 1 week prior to experimental use and housed in a specific-pathogen-free animal facility with free access to animal chow and water. During the experiments, general health and body weight of the animals were monitored. The number of animals was reduced as much as possible (n = 3 per group and time point) for all in vivo experiments. […]
# (§3) For animal tumor models, athymic Balb/c nude mice were subcutaneously injected in the right flank with 5 × 10^6 U-87 MG cells mixed with Matrigel Matrix (Corning, NY, USA) at a 1:1 ratio or in the right and left flank with 5 × 10^6 M21 and M21-L cells. Tumor growth was continuously monitored by caliperation. […]
# (§4) PET/CT imaging of the experimental animals was performed with an Albira PET/SPECT/CT small animal imaging system (Bruker Biospin Corporation, Woodbridge, CT, USA). […] After reconstruction, the acquired data was viewed and analyzed with the appropriate software (PMOD software, PMOD Technologies Ltd., Zurich, Switzerland and VolView software, Kitware, Clifton Park, NY, USA).
# [1] = set-up: dose or concentration left out as unconfirmed; details: mouse, in vivo
# Description: as §2, §3
# The animals were sacrificed by cervical dislocation at 30 and 90 min post-injection (p.i.). Organs and tissues of interest (blood, spleen, pancreas, stomach, intestines, kidneys, liver, heart, lung, muscle, bone, and tumor) were collected, weighed, and measured in the gamma counter. The results were expressed as percentage of injected dose per gram organ (% ID/g).
# [2] = mouse, in vivo
# Description: The animal studies were performed using female 8–10-week-old Balb/c and athymic Balb/c nude mice (Envigo, Horst, The Netherlands). The animals were acclimatized to laboratory conditions for 1 week prior to experimental use and housed in a specific-pathogen-free animal facility with free access to animal chow and water. During the experiments, general health and body weight of the animals were monitored. The number of animals was reduced as much as possible (n = 3 per group and time point) for all in vivo experiments. The tracer injection as well as small animal imaging was carried out under 2% isoflurane anesthesia (FORANE, Abbott Laboratories, Abbott Park, IL, USA) to minimize animal suffering and to prevent animal motion. […] The animals were sacrificed by cervical dislocation at 30 and 90 min post-injection (p.i.). Organs and tissues of interest (blood, spleen, pancreas, stomach, intestines, kidneys, liver, heart, lung, muscle, bone, and tumor) were collected, weighed, and measured in the gamma counter. The results were expressed as percentage of injected dose per gram organ (% ID/g).
# U-87 MG cells = assay: Cell uptake assay in U-87 MG cells; type: cell-based, human; details: 7 nM tracer, 500-fold excess (3.5 µM) inhibitor, 30-90 min, 37 °C
# Description: as §1
# U-87 MG tumor = assay: Static PET/CT imaging in U-87 MG tumor-bearing Balb/c nude mice; type: in vivo, mouse; details: U-87 MG tumor mice, 30 and 90 min p.i.
# Description: as §2, §3, §4
# M21 tumor = assay: Static PET/CT imaging in M21 (αvβ3-positive) xenografted Balb/c nude mice; type: in vivo, mouse; details: αvβ3 integrin-positive (M21) tumor tissue, 30 and 90 min p.i.
# Description: as §2, §3, §4
# [3] = type: physicochemical; details: pH 7.4
# Description: Aliquots of 50 μL were added to 450 μL PBS and 500 μL octanol, and the mixture was vigorously vortexed for 20 min at 1500 rpm. The aqueous and organic solvents were separated by centrifugation (2 min at 2000× g), and 50 μL aliquots of both layers were collected and measured in a gamma counter (PerkinElmer, Waltham, MA, USA). Log p values were calculated from the obtained data in Microsoft Office Excel 2010 (Microsoft, Redmond WA, USA) (mean of n = 6).
structure (smiles),measurement,setting,value
"CC(=O)N(O)CCCCCNC(=O)CCC(=O)N(O)CCCCCNC(=O)CCC(=O)N(O)CCCCCNC(=S)Nc1ccc(NC(=S)NCCCC[C@@H]2NC(=O)[C@@H](Cc3ccc(O)cc3)NC(=O)[C@H](CC(=O)O)NC(=O)CNC(=O)[C@H](CCCNC(=N)N)NC2=O)cc1 [[^68Ga]Ga-DFO-c(RGDyK), metal not drawn]",Blocking of cell uptake by excess cold NODAGA-c(RGDyK),M21 cells,could only be blocked for the αvβ3-positive cells (M21)
same,PET/CT tumor uptake,M21-L tumor,no uptake was observed
same,tissue uptake at 0.5 h,[1],3.03 ± 0.62 %ID/g
same,tissue uptake at 1.5 h,[1],1.54 ± 0.56 %ID/g
same,tissue uptake at 1.5 h,[2]; Activity concentration in intestines,1.99 ± 0.01 %ID/g
same,tissue uptake at 1.5 h,[2]; Activity concentration in kidneys,5.31 ± 0.12 %ID/g
same,tissue uptake at 1.5 h,[2]; Activity concentration in stomach,1.78 ± 0.05 %ID/g
same,Blocking of cell uptake by excess cold NODAGA-c(RGDyK),U-87 MG cells,could be blocked with NODAGA-c(RGDyK) by about half
same,PET/CT tumor visualization,U-87 MG tumor,clearly visualizing the tumor
same,PET/CT tumor uptake,M21 tumor,specific uptake of the radiotracer
same,logP,[3],-2.01 ± 0.08
